Assay results from ChEMBL document CHEMBL3430912, “GSK Tres Cantos Anti-Kinetoplastid Screening (TCAKS) Data”.

What was measured:
Leishmania donovani [1] = experiment: (§1) GSK_TCAKS: pIC50 Leishmania donovani Imaging: THP-1 Host Macrophages. Assay plates (384-well) were prepared by adding 250nL of compound to each well. For single shot assay, the final compound concentration was 5 uM. […] Automated image analysis was performed with a script developed on Acapella High Content Imaging and Analysis Software (PerkinElmer). Output: THP-1 cell count were reported for each well.; format: functional, organism-based, Homo sapiens
Trypanosoma cruzi [2] = experiment: (§2) GSK_TCAKS: pIC50 Trypanosoma cruzi Imaging: Amastigotes/Cell. […] Cells were then washed once with PBS before infection. T. cruzi trypomastigotes, collected at days 5 to 8 after infection from LLC-MK2 parasite infected cultures, were allowed to swim out for 4h at 37C from a centrifuged pellet (2,500 rpm/10 min/room temperature). Trypomastigotes were then collected and counted in a CASY Cell Counter. Trypomastigotes, in supplemented DMEM, were added to H9c2 cultures in a multiplicity of infection of 1 and incubated for 18 h. Cells were washed once with PBS before incubation of the infected H9c2 monolayer with trypsin (Life-Technologies) to detach cells from the flask. Cells were counted in a CASY Cell Counter using a 150 um capillary and their density set at 5 * 10^4 cells per mL in supplemented assay DMEM. Infected H9c2 were dispensed into 384-well poly-lysine coated assay plates at 50uL per well using a Multidrop Combi dispenser. After seeding them, the plates were incubated at 37C, 5% CO2 for 72h. Cultures were then fixed and stained by addition of 50 uL of a solution containing 8% formaldehyde and 4 uM DRAQ5 DNA dye (BioStatus, UK) per well. […] Five images were collected per well for reliable statistical analysis. Automated image analysis was performed with a script developed on Acapella High Content Imaging and Analysis Software (PerkinElmer). Output: number of amastigotes per cell as infection level measurement.; format: functional, organism-based, Rattus norvegicus; conditions: H9c2, 4 h
[3] = system: Trypanosoma brucei brucei; experiment: GSK_TCAKS: pIC50 Trypanosoma brucei viability assay using luminiscence. Assay plates (1536-well) were prepared. T. brucei cultures were harvested and counted in a CASY cell counter. A parasite suspension was prepared at a final concentration of 5 * 10^4 cells/mL in complete HMI9 medium and 6uL was dispensed to all wells containing compounds using a Multidrop Combi dispenser. 6uL of HMI9 media with 0.4% DMSO were dispensed to control columns. Plates were incubated for 24 h at 37C, 5% CO2 then tempered for 10 min at room temperature. ATP content was quantified by adding 4 uL of CellTiter-Glo Reagent (Promega) according to the manufacturer's instructions. Luminescence was measured using a ViewLux.; format: functional, organism-based; conditions: Lister 427, CASY
[4] = system: Trypanosoma brucei brucei; experiment: GSK_TCAKS: pIC50 Trypanosoma brucei viability assay using fluorescence intensity. Assay plates (1536-well) were prepared by dispensing 25nL of compound solution per well using an Echo acoustic dispenser (Labcyte).; format: functional, organism-based; conditions: Lister 427, 2 h
Trypanosoma cruzi [5] = experiment: as §2, with “H2C9” for “Trypanosoma cruzi”, “H9c2 Host Cardiomyocytes.” for “Amastigotes/Cell.”, “Number” for “number”, “H9c2 Host Cardiomyocytes nuclei to determine drug-related cytotoxicity.” for “amastigotes per cell as infection level measurement.”; format: functional, organism-based, Rattus norvegicus; conditions: H9c2, 4 h
[6] = molecular target: Sterol 14-alpha demethylase (Trypanosoma cruzi (strain CL Brener), UniProt Q7Z1V1); experiment: GSK_TCAKS: pIC50 CYP51 from Trypanosoma cruzi.; format: functional
Chain of Sterol 14-alpha demethylase (Q7Z1V1 whole entry): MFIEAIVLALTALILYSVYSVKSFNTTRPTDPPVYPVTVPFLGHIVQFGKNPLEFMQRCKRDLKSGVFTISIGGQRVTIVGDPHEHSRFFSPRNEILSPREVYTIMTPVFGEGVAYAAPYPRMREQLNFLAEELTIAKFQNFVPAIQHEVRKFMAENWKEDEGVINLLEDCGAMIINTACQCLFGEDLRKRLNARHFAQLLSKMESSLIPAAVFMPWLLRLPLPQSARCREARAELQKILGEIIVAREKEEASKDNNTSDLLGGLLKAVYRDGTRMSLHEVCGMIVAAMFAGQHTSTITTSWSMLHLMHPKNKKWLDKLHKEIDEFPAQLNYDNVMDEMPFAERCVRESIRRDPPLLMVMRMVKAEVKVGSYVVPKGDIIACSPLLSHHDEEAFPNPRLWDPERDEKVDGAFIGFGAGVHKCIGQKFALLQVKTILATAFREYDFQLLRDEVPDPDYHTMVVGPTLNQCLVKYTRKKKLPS

Trypanosoma cruzi [7] = experiment: GSK_TCAKS: pIC50 Trypanosoma cruzi viability assay using beta-GAL activity. This assay was run at single shot at 5uM compound concentration per well. The biological reagents consisted of NIH-3T3 host cells and trypomastigotes parasitic cells; both cell types were set to a 3.3 * 10^5 cells/mL dilution in assay DMEM by means of a CASY cell counter device using a 60um capillary. 6 uL of the mixture were dispensed per well (about 1 * 10^3 host-cells and 1 * 10^3 parasites) with a Multidrop Combi dispenser. […] In all wells, the percentage of DMSO never exceeded 0.5%. Plates incubated for four days at 37C, 5% CO2. The substrate used for the assay fluorescence intensity (FLINT) readout was resorufin-beta-D-galactopiranoside (Sigma-Aldrich) at 5uM per well. It was diluted in PBS supplemented with the soft detergent Igepal (Fluka).; format: functional, organism-based, Mus musculus; conditions: Tulahuen, NIH3T3
Trypanosoma cruzi [8] = experiment: GSK_TCAKS: pIC50 Trypanosoma cruzi Imaging: Infected Cells. […] Cells were then washed once with PBS before infection. T. cruzi trypomastigotes, collected at days 5 to 8 after infection from LLC-MK2 parasite infected cultures, were allowed to swim out for 4h at 37C from a centrifuged pellet (2,500 rpm/10 min/room temperature). Trypomastigotes were then collected and counted in a CASY Cell Counter. Trypomastigotes, in supplemented DMEM, were added to H9c2 cultures in a multiplicity of infection of 1 and incubated for 18 h. Cells were washed once with PBS before incubation of the infected H9c2 monolayer with trypsin (Life-Technologies) to detach cells from the flask. Cells were counted in a CASY Cell Counter using a 150 um capillary and their density set at 5 * 10^4 cells per mL in supplemented assay DMEM. Infected H9c2 were dispensed into 384-well poly-lysine coated assay plates at 50uL per well using a Multidrop Combi dispenser. After seeding them, the plates were incubated at 37C, 5% CO2 for 72h. Cultures were then fixed and stained by addition of 50 uL of a solution containing 8% formaldehyde and 4 uM DRAQ5 DNA dye (BioStatus, UK) per well. […] Five images were collected per well for reliable statistical analysis. Automated image analysis was performed with a script developed on Acapella High Content Imaging and Analysis Software (PerkinElmer). Output: percentage of infected cells per well as a second infection marker.; format: functional, organism-based, Rattus norvegicus; conditions: H9c2, 4 h
Leishmania donovani [9] = experiment: GSK_TCAKS: pIC50 Leishmania donovani viability assay using fluorescence intensity. Assay plates (1536-well) were prepared by adding 30nL per well of compound. For single shot assay, the final compound concentration was 5uM. […] Briefly, eGFP LdBOB axenic amastigotes were harvested, fixed and counted in a CASY cell counter (Roche-Applied Science). A final concentration of 1.5 * 10^5 cells per well were prepared in amastigote media containing 500 U/mL penicillin/streptomycin (Invitrogen) and 6uL was dispensed to each experimental well using a Multidrop Combi dispenser (Thermo Scientific). 6uL of assay media was dispensed to control columns used as reference for 100% compound response. Following incubation for 72 h at 37C, 5% CO2, 2 uL of resazurin was added to each well at a final concentration of 0.5 mM in phosphate buffered saline (PBS) with IGEPAL (Sigma-Aldrich), 0.05% (v/v).; format: functional, organism-based
Leishmania donovani [10] = experiment: as §1, with “Infected” for “THP-1 Host”, “Percent of infected macrophage cells” for “THP-1 cell count”; format: functional, organism-based, Homo sapiens; conditions: THP-1
[11] = GSK_TCAKS: pIC50 HepG2 human cell line viability assay using luminiscence. […] Seeding density was checked to ensure that new mono-layers were not more than 50% confluent at the time of harvesting. Cell suspension was added to 500 mL of the same medium at a final density of 1.2 * 10^5 cells/mL. This cell suspension was dispensed (25 uL, 3000 cells per well) into 384-well clear-bottom plates using a Multidrop Combi dispenser. Prior to addition of the cell suspension, the screening compounds (250 nL) were pre-dispensed into the plates with an Echo liquid handler. Plates were incubated for 48 h at 37C, 5% CO2. After incubation, plates equilibrated at room temperature for 30 min before proceeding to develop the luminescent signal. The signal developer, CellTiter-Glo Reagent, was allowed to equilibrate at room temperature for 30 min and added to the plates (25uL per well) using a Multidrop Combi dispenser. Plates were left for 10 min at room temperature for stabilization and then read using a ViewLux.; format: toxicity, cell-based
Leishmania donovani [12] = experiment: as §1, with “Amastigotes/Macrophages.” for “THP-1 Host Macrophages.”, “Average number of amastigotes per macrophage” for “THP-1”, “cell” for “cell count”; format: functional, organism-based, Homo sapiens; conditions: THP-1

| SMILES | IC50 (Leishmania donovani [1]) | IC50 (Trypanosoma cruzi [2]) | IC50 [3] | IC50 [4] | IC50 (Trypanosoma cruzi [5]) | IC50 [6] | IC50 (Trypanosoma cruzi [7]) | IC50 (Trypanosoma cruzi [8]) | IC50 (Leishmania donovani [9]) | IC50 (Leishmania donovani [10]) | IC50 at 48 h [11] | IC50 (Leishmania donovani [12]) |
| --- | --- | --- | --- | --- | --- | --- | --- | --- | --- | --- | --- | --- |
| Cc1cnc(Nc2cc(Cc3ccccc3)nc(N[C@H]3CC[C@H](O)CC3)n2)s1 | 0.0251 µM | 0.0501 µM | 0.0398 µM | 0.0251 µM | 0.0316 µM | > 100 µM | 0.126 µM | 0.126 µM | 0.794 µM | 0.0398 µM | 25.1 µM | 0.0316 µM |
| COc1ccc2ncc(=O)n(CCN3CCC(NCc4ccc(-c5cccs5)cc4)CC3)c2n1 | 10 µM | 0.158 µM | 6.31 µM | 3.16 µM | 7.94 µM | 25.1 µM | 2 µM | 1.58 µM | 1.58 µM | 3.16 µM | 12.6 µM | 1.26 µM |
| O=C1NCCn2ccc(Nc3nc(N[C@H]4CC[C@H](O)CC4)ncc3Cl)c21 | 0.398 µM | 3.16 µM | 0.631 µM | 0.501 µM | 0.398 µM | > 100 µM | 6.31 µM | 20 µM | 2.51 µM | 1 µM | > 100 µM | 0.631 µM |
| N#Cc1cccc(CNc2ccc(-c3cnn(CC4CC4)c(=O)c3C#N)cc2)c1 | 6.31 µM | 5.01 µM | 12.6 µM | 10 µM | > 50.1 µM | 6.31 µM | 5.01 µM | 7.94 µM | 25.1 µM | 1.26 µM | > 100 µM | 0.251 µM |
| COc1cc(OC)cc(C(=O)N[C@@H](CC(C)C)C(=O)NC2(C#N)CC2)c1 | > 50.1 µM | > 50.1 µM | 0.0631 µM | 0.501 µM | > 50.1 µM | > 100 µM | > 50.1 µM | > 50.1 µM | > 50.1 µM | > 50.1 µM | > 100 µM | > 50.1 µM |
| Cc1ccc(S(C)(=O)=O)cc1Nc1nccc(-c2sc(N)nc2-c2ccccc2)n1 | 20 µM | 0.0794 µM | 1.58 µM | 0.794 µM | 5.01 µM | > 100 µM | 0.126 µM | 0.126 µM | 3.16 µM | 5.01 µM | 31.6 µM | 2.51 µM |
| CC(C)C[C@H](NC(=O)c1ccc(-c2ccccc2)o1)C(=O)NC1(C#N)CC1 | > 50.1 µM | 25.1 µM | 0.0501 µM | 0.1 µM | > 50.1 µM | > 100 µM | 31.6 µM | > 50.1 µM | > 50.1 µM | > 50.1 µM | > 100 µM | 15.8 µM |
| CCOC(=O)c1noc(N)c1-c1ccccc1 | > 50.1 µM | > 50.1 µM | 0.631 µM | 0.631 µM | > 50.1 µM | > 100 µM | > 50.1 µM | > 50.1 µM | > 50.1 µM | > 50.1 µM | > 100 µM | > 50.1 µM |
